Experimental data from the supplement of paper PMC10307832.

How the values were obtained:
Assay in all cases: relative viability (nuclei count vs DMSO), 5 days (fraction); higher = more cells survive
CX-5461 + OSI-027 = compound: Cc1cnc(CNC(=O)c2c(=O)c3ccc(N4CCCN(C)CC4)nc3n3c2sc2ccccc23)cn1 [CX-5461] + COc1cccc2cc(-c3nc([C@H]4CC[C@H](C(=O)O)CC4)n4ncnc(N)c34)[nH]c12 [OSI-027] (partner 0.5 µM)
How it was run: (§1)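 A single step with final 0.05% Triton X-100, 1% formaldehyde and 1 ug/ml Hoechst fixed the cells and stained nuclei 5 days after treatment. Lung cancer cell lines in 1536-well plates had been treated by pin tool the day after seeding with one drug alone or a fixed anchor-drug dose plus five library-drug doses (not always all listed) in √10 steps, and nuclei were counted on 4× images. Relative viability is the ratio of nuclei in treated wells to nuclei in vehicle wells, taken as the median of duplicate plates.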

IMD-0354 + Luminespib = compound: O=C(Nc1cc(C(F)(F)F)cc(C(F)(F)F)c1)c1cc(Cl)ccc1O [IMD-0354] + CCNC(=O)c1noc(-c2cc(C(C)C)c(O)cc2O)c1-c1ccc(CN2CCOCC2)cc1 [Luminespib] (partner 0.01 µM)
How it was run: as §1

IMD-0354 + Lapatinib = compound: O=C(Nc1cc(C(F)(F)F)cc(C(F)(F)F)c1)c1cc(Cl)ccc1O [IMD-0354] + CS(=O)(=O)CCNCc1ccc(-c2ccc3ncnc(Nc4ccc(OCc5cccc(F)c5)c(Cl)c4)c3c2)o1 [Lapatinib] (partner 2 µM)
How it was run: as §1

IMD-0354 + AZD7762 = compound: O=C(Nc1cc(C(F)(F)F)cc(C(F)(F)F)c1)c1cc(Cl)ccc1O [IMD-0354] + NC(=O)Nc1cc(-c2cccc(F)c2)sc1C(=O)N[C@H]1CCCNC1 [AZD7762] (partner 0.2 µM)
How it was run: as §1

| Cell Line | relative viability (CX-5461 + OSI-027; first compound 0.01 µM) | relative viability (CX-5461 + OSI-027; first compound 0.03162 µM) | relative viability (CX-5461 + OSI-027; first compound 0.1 µM) | relative viability (CX-5461 + OSI-027; first compound 0.3162 µM) | relative viability (CX-5461 + OSI-027; first compound 1 µM) | relative viability (IMD-0354 + Luminespib; first compound 0.04 µM) | relative viability (IMD-0354 + Luminespib; first compound 0.1265 µM) | relative viability (IMD-0354 + Luminespib; first compound 0.4 µM) | relative viability (IMD-0354 + Luminespib; first compound 1.265 µM) | relative viability (IMD-0354 + Luminespib; first compound 4 µM) | relative viability (IMD-0354 + Lapatinib; first compound 0.04 µM) | relative viability (IMD-0354 + Lapatinib; first compound 0.1265 µM) | relative viability (IMD-0354 + Lapatinib; first compound 0.4 µM) | relative viability (IMD-0354 + Lapatinib; first compound 1.265 µM) | relative viability (IMD-0354 + Lapatinib; first compound 4 µM) | relative viability (IMD-0354 + AZD7762; first compound 0.04 µM) | relative viability (IMD-0354 + AZD7762; first compound 0.1265 µM) | relative viability (IMD-0354 + AZD7762; first compound 0.4 µM) | relative viability (IMD-0354 + AZD7762; first compound 1.265 µM) | relative viability (IMD-0354 + AZD7762; first compound 4 µM) |
| --- | --- | --- | --- | --- | --- | --- | --- | --- | --- | --- | --- | --- | --- | --- | --- | --- | --- | --- | --- | --- |
| NCI-H1993 | 0.562 | 0.591 | 0.625 | 0.511 | 0.448 | 0.852 | 0.701 | 0.623 | 0.483 | 0.619 | 0.79 | 0.788 | 0.754 | 0.497 | 0.562 | 0.853 | 0.645 | 0.711 | 0.328 | 0.529 |
| NCI-H2085 | 0.845 | 0.75 | 0.625 | 0.557 | 0.557 | 0.498 | 0.41 | 0.409 | 0.274 | 0.264 | 0.78 | 0.797 | 0.64 | 0.389 | 0.298 | 1.18 | 1.12 | 0.754 | 0.324 | 0.359 |
| NCI-H2087 | 0.61 | 0.499 | 0.474 | 0.369 | 0.407 | 0.147 | 0.183 | 0.173 | 0.12 | 0.127 | 0.872 | 0.991 | 0.419 | 0.137 | 0.178 | 1.6 | 1.07 | 0.637 | 0.235 | 0.392 |
| NCI-H2126 | 0.75 | 0.684 | 0.717 | 0.783 | 0.63 | 0.866 | 0.867 | 0.55 | 0.27 | 0.213 | 0.793 | 0.803 | 0.655 | 0.768 | 0.378 | 1.24 | 1.05 | 0.697 | 0.566 | 0.346 |
| NCI-H2170 | 0.812 | 0.666 | 0.754 | 0.707 | 0.747 | 0.754 | 0.746 | 0.491 | 0.764 | 0.231 | 0.275 | 0.288 | 0.255 | 0.252 | 0.223 | 0.946 | 0.978 | 0.818 | 0.767 | 0.151 |
| NCI-H2347 | 0.326 | 0.395 | 0.411 | 0.553 | 0.395 | 0.523 | 0.331 | 0.356 | 0.395 | 0.267 | 0.863 | 0.972 | 0.632 | 0.201 | 0.434 | 0.829 | 0.838 | 0.617 | 0.281 | 0.345 |
| NCI-H2405 | 0.607 | 0.639 | 0.717 | 0.632 | 0.616 | 0.752 | 0.669 | 0.671 | 0.358 | 0.288 | 1.38 | 1.24 | 0.69 | 0.243 | 0.202 | 0.964 | 0.829 | 0.514 | 0.29 | 0.414 |
| NCI-H3122 | 1.07 | 0.882 | 0.938 | 0.672 | 0.668 | 0.0711 | 0.103 | 0.0803 | 0.0918 | 0.0652 | 1.05 | 0.983 | 0.747 | 0.202 | 0.211 | 1.05 | 1.05 | 0.623 | 0.271 | 0.133 |
| PC-3 [JPC-3] | 0.828 | 0.811 | 0.773 | 0.668 | 0.707 | 0.688 | 0.53 | 0.569 | 0.351 | 0.259 | 0.484 | 0.434 | 0.372 | 0.42 | 0.199 | 1.01 | 0.751 | 0.64 | 0.291 | 0.355 |
| PC-14 | 0.927 | 1.01 | 0.85 | 0.729 | 0.236 | 0.143 | 0.18 | 0.152 | 0.134 | 0.109 | 0.291 | 0.384 | 0.197 | 0.347 | 0.109 | 0.424 | 0.391 | 0.145 | 0.128 | 0.108 |
| RERF-LC-KJ | 0.56 | 0.628 | 0.572 | 0.528 | 0.434 | 1.42 | 1.26 | 0.4 | 0.227 | 0.303 | 0.863 | 0.981 | 0.507 | 0.355 | 0.265 | 1.1 | 1 | – | 0.327 | 0.184 |
